# Earlier results in patent US20250319037A1, “METHODS OF DELIVERING THERAPEUTIC AGENTS, AND LIPID COMPOSITIONS” (FUJIFILM Corporation, priority 2022, published 2025).
# Settings: Non-patent documents 11 and 12
compound,measurement,value
CC(C)CCC[C@@H](C)[C@H]1CC[C@H]2[C@@H]3CC=C4C[C@@H](OC(=O)NCCN(C)C)CC[C@]4(C)[C@H]3CC[C@]12C [DC-cholesterol],pKa of the tertiary amine group,7.8
